Experimental data as given in ChEMBL document CHEMBL1201862, “PubChem BioAssay data set” (2004).
Calls of active or inactive are those of the source.

How the values were obtained:
Type in all cases: functional
[1] = target: Serine/threonine-protein kinase N2 (Homo sapiens, UniProt Q16513)
[2] = target: Serine/threonine-protein kinase pim-1 (Homo sapiens, UniProt P11309)
[3] = target: Cyclin-dependent kinase 1 (Homo sapiens, UniProt P06493);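 further: Kinome-wide panel profiling, with the target listed as panel member CDC2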
[4] = target: Protein kinase C zeta type (Homo sapiens, UniProt Q05513);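 further: measured as one member of a broad kinase profiling panel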
[5] = target: Serine/threonine-protein kinase DCLK1 (Homo sapiens, UniProt O15075);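 further: affinity for DCLK1 (listed as DCAMKL1) measured as one member of a kinome-wide kinase profiling panel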
[6] = target: Serine/threonine-protein kinase MRCK alpha (Homo sapiens, UniProt Q5VT25)
[7] = target: Dual specificity tyrosine-phosphorylation-regulated kinase 4 (Homo sapiens, UniProt Q9NR20)
[8] = target: Serine/threonine-protein kinase TAO1 (Homo sapiens, UniProt Q7L7X3)
SRSF protein kinase 1 = SRSF protein kinase 1 (Homo sapiens, UniProt Q96SB4);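 further: measured as one member of a kinome-wide kinase profiling panel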
[9] = target: Dual specificity protein kinase CLK2 (Homo sapiens, UniProt P49760)
[10] = target: Mitogen-activated protein kinase kinase kinase kinase 2 (Homo sapiens, UniProt Q12851);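 further: measured as one member of a kinome-wide kinase panel, with MAP4K2 as the panel entry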
[11] = target: Cyclin-dependent kinase 5 (Homo sapiens, UniProt Q00535);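 further: CDK5 measured as one member of a kinase profiling panel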
Misshapen-like kinase 1 = Misshapen-like kinase 1 (Homo sapiens, UniProt Q8N4C8);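 further: kinome panel screen with MINK as the panel member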
[12] = target: Calcium/calmodulin-dependent protein kinase type II subunit delta (Homo sapiens, UniProt Q13557)
[13] = target: Lymphokine-activated killer T-cell-originated protein kinase (Homo sapiens, UniProt Q96KB5);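 further: value comes from a kinase panel screen in which TOPK was one of the panel members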
[14] = target: RAC-gamma serine/threonine-protein kinase (Homo sapiens, UniProt Q9Y243)
[15] = target: Tyrosine-protein kinase JAK3 (Homo sapiens, UniProt P52333)
[16] = target: Dual specificity tyrosine-phosphorylation-regulated kinase 3 (Homo sapiens, UniProt O43781);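 further: measured as one member of a broad kinase panel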
[17] = target: Casein kinase II subunit alpha (Homo sapiens, UniProt P68400)
[18] = target: Serine/threonine-protein kinase PLK4 (Homo sapiens, UniProt O00444);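 further: PLK4 measured as one member of a kinome-wide kinase profiling panel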
[19] = target: Mitogen-activated protein kinase 13 (Homo sapiens, UniProt O15264)
[20] = target: Tyrosine-protein kinase SYK (Homo sapiens, UniProt P43405)
[21] = target: Serine/threonine-protein kinase 3 (Homo sapiens, UniProt Q13188);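 further: measured as one member of a kinome-wide kinase panel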
[22] = target: Casein kinase I isoform alpha (Homo sapiens, UniProt P48729)
[23] = target: RAC-alpha serine/threonine-protein kinase (Homo sapiens, UniProt P31749);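 further: AKT1 affinity measured as one member of a kinome-wide kinase profiling panel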
[24] = target: Serine/threonine-protein kinase BRSK1 (Homo sapiens, UniProt Q8TDC3);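 further: measured within a kinome-wide kinase panel, with the target listed as KIAA1811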
[25] = target: Mitogen-activated protein kinase 1 (Homo sapiens, UniProt P28482)
[26] = target: Calcium/calmodulin-dependent protein kinase type 1 (Homo sapiens, UniProt Q14012)
[27] = target: Phosphorylase b kinase gamma catalytic chain, liver/testis isoform (Homo sapiens, UniProt P15735);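 further: PHKG2 measured as one member of a kinome-wide kinase panel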
[28] = target: cAMP-dependent protein kinase catalytic subunit alpha (Homo sapiens, UniProt P17612)
[29] = target: T1, Interleukin-1 receptor-associated kinase 4 (Homo sapiens, UniProt Q9NWZ3)
T1 sequence (Q9NWZ3 whole entry): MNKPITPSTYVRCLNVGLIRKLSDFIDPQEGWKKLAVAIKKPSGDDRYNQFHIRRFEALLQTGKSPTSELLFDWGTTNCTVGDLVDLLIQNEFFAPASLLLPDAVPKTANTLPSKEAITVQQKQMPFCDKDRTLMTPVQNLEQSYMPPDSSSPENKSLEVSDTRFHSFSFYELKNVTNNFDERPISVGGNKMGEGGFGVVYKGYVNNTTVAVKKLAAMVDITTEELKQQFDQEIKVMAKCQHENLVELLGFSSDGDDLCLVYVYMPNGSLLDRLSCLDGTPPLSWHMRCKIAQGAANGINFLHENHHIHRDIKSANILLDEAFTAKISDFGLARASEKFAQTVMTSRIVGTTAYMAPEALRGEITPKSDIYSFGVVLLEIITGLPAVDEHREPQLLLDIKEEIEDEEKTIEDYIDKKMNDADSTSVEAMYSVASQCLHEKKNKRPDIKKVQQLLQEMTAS

[30] = target: Serine/threonine-protein kinase 17A (Homo sapiens, UniProt Q9UEE5)
[31] = target: MAP kinase-activated protein kinase 2 (Homo sapiens, UniProt P49137);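 further: measured as one member of a kinome-wide kinase panel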
[32] = target: Serine/threonine-protein kinase Chk1 (Homo sapiens, UniProt O14757);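 further: measured as one member of a kinome-wide kinase profiling panel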
[33] = target: Serine/threonine-protein kinase Nek4 (Homo sapiens, UniProt P51957)
[34] = target: MAP kinase-activated protein kinase 3 (Homo sapiens, UniProt Q16644);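 further: value comes from a kinome-wide profiling panel in which MAPKAPK3 is one of the panel members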
[35] = target: MAP kinase-interacting serine/threonine-protein kinase 2 (Homo sapiens, UniProt Q9HBH9)
[36] = target: Serine/threonine-protein kinase pim-3 (Homo sapiens, UniProt Q86V86);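 further: value obtained as one member of a broad kinase panel profiling effort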
[37] = target: Mast/stem cell growth factor receptor Kit (Homo sapiens, UniProt P10721);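 further: KIT entry within a kinase panel assay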
[38] = target: Casein kinase I isoform delta (Homo sapiens, UniProt P48730);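 further: measured as one member (CSNK1D) of a kinome panel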
Casein kinase I isoform delta, sequence (P48730 whole entry, canonical isoform): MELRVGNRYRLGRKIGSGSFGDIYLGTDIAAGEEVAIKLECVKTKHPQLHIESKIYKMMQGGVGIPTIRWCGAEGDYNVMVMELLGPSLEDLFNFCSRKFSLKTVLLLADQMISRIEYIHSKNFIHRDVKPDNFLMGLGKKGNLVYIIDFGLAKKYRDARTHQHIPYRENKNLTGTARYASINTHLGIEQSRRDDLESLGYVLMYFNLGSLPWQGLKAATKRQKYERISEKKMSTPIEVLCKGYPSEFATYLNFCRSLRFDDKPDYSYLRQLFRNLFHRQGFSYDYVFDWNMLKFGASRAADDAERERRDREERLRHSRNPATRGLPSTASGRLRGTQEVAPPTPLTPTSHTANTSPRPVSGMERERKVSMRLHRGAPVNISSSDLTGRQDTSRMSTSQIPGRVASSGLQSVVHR

Dual specificity tyrosine-phosphorylation-regulated kinase 4, sequence (Q9NR20 whole entry): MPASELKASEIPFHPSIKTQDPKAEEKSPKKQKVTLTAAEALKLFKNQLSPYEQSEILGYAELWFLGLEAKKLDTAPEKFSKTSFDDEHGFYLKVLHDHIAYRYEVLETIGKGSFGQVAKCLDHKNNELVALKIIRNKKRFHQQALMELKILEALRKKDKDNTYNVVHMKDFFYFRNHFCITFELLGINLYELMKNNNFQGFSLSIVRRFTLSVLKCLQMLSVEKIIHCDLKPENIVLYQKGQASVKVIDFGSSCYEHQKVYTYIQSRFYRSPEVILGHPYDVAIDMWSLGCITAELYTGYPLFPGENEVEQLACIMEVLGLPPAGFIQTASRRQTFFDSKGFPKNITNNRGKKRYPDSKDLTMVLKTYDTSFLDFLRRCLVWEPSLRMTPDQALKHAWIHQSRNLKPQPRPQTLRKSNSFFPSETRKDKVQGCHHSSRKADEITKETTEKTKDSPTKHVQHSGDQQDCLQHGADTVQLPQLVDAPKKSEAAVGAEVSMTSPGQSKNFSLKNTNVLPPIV
Serine/threonine-protein kinase Chk1, sequence (O14757 whole entry): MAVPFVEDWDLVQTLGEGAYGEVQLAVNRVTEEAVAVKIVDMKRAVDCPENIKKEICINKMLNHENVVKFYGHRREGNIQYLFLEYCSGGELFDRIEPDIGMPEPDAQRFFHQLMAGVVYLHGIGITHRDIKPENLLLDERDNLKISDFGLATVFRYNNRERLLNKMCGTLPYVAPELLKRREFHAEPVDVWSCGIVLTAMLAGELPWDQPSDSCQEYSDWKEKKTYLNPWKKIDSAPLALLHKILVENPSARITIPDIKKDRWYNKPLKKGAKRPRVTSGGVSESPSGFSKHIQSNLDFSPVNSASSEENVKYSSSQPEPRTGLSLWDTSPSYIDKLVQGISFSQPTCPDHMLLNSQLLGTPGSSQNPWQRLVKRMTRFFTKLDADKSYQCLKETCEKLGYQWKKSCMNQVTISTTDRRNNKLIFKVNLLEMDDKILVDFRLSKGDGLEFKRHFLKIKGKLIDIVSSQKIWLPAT
Serine/threonine-protein kinase DCLK1, sequence (O15075 whole entry): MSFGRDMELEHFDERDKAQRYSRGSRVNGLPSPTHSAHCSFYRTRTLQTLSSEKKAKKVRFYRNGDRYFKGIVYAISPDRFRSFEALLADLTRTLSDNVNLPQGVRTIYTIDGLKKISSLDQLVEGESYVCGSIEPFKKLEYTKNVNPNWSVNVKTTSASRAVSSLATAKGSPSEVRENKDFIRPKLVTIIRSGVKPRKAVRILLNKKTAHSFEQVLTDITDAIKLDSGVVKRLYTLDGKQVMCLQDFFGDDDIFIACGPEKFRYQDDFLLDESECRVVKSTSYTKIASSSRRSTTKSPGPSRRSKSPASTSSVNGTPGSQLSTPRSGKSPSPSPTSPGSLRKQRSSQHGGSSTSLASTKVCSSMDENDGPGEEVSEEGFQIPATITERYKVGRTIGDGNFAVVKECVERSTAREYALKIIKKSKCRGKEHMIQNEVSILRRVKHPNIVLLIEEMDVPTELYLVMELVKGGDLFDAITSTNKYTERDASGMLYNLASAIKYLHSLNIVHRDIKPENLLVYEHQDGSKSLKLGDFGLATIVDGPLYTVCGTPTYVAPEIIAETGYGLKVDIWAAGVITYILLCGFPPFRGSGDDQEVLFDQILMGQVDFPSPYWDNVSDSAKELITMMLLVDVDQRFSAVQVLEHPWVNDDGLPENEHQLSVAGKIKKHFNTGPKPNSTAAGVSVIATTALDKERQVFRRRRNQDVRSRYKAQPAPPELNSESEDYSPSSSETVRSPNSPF
MAP kinase-activated protein kinase 2, sequence (P49137 whole entry): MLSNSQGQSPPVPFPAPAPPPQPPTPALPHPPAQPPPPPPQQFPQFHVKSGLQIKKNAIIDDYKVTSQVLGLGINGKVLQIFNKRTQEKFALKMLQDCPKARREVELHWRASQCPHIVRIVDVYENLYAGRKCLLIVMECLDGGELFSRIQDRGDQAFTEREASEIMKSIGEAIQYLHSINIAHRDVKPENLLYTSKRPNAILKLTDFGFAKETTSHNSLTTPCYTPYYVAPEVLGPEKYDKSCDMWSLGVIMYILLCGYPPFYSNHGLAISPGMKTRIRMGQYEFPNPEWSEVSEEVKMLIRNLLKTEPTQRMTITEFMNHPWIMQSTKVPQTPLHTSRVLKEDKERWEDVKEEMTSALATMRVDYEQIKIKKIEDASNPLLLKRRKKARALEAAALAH
Serine/threonine-protein kinase PLK4, sequence (O00444 whole entry): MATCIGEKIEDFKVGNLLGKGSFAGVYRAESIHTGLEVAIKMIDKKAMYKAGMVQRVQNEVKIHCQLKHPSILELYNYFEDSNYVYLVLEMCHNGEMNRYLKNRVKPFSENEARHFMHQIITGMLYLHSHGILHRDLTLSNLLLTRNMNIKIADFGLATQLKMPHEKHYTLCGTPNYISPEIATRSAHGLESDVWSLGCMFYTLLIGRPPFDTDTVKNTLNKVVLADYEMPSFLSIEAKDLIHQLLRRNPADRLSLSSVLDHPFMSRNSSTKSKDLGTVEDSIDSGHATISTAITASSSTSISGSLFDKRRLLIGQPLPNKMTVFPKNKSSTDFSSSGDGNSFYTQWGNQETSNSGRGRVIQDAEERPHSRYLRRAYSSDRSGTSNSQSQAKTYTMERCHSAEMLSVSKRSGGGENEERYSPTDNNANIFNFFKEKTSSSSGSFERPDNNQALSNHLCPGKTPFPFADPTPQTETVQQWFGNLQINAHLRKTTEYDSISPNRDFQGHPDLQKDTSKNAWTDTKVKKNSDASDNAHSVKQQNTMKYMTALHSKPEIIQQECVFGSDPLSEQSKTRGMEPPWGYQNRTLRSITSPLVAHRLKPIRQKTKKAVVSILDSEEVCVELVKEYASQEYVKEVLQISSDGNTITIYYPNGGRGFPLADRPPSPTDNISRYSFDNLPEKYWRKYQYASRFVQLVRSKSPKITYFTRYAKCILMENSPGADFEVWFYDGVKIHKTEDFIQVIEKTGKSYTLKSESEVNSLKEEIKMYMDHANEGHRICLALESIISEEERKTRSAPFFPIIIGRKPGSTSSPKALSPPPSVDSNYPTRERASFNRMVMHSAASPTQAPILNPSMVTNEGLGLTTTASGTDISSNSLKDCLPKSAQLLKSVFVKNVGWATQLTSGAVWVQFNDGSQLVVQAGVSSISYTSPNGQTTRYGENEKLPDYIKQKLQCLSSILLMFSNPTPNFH
Calcium/calmodulin-dependent protein kinase type II subunit delta, sequence (Q13557 whole entry): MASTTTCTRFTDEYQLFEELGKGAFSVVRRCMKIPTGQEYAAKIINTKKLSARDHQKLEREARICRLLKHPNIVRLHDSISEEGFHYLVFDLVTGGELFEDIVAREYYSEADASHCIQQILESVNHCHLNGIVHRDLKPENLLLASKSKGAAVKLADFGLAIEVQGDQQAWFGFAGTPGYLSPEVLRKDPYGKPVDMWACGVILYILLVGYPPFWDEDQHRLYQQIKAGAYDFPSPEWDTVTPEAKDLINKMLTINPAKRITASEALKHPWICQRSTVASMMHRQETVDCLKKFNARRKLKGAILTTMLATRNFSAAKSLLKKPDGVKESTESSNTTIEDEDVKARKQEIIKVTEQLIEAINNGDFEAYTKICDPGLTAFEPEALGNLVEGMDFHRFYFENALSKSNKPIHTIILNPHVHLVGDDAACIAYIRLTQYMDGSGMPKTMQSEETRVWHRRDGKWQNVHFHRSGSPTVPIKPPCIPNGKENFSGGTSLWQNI
Cyclin-dependent kinase 1, sequence (P06493 whole entry): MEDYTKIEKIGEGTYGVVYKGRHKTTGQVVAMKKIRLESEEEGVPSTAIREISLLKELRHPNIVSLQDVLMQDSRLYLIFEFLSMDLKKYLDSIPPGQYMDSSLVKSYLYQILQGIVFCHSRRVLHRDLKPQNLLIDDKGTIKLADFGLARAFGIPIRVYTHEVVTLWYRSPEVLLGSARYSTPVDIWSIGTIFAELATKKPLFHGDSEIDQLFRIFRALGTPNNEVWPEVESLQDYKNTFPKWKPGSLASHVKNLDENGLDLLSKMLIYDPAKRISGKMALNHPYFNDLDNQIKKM
MAP kinase-interacting serine/threonine-protein kinase 2, sequence (Q9HBH9 whole entry): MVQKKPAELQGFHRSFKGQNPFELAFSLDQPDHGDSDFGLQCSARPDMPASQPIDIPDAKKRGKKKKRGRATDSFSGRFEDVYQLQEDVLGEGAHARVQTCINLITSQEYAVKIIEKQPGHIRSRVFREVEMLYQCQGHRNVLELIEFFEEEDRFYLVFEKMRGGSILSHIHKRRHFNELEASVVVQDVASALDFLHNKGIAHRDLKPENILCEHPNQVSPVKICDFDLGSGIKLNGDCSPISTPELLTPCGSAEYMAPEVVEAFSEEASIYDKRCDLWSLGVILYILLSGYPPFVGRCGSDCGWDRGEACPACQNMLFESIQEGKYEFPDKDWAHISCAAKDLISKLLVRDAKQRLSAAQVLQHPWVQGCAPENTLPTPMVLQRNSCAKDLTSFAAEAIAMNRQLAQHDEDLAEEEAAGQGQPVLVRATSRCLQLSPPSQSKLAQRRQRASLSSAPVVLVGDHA

Ki [1]: > 7.94 µM (inactive)
Ki [2]: > 6.31 µM (inactive)
Ki [3]: > 7.94 µM (inactive)
Ki [4]: > 7.94 µM (inactive)
Ki [5]: > 10 µM (inactive)
Ki [6]: > 10 µM (inactive)
Ki [7]: > 7.94 µM (inactive)
Ki [8]: > 5.01 µM (inactive)
Ki (SRSF protein kinase 1): > 7.94 µM (inactive)
Ki [9]: > 5.01 µM (inactive)
Ki [10]: > 5.01 µM (inactive)
Ki [11]: > 6.31 µM (inactive)
Ki (Misshapen-like kinase 1): > 7.94 µM (inactive)
Ki [12]: > 6.31 µM (inactive)
Ki [14]: > 10 µM (inactive)
Ki [15]: > 5.01 µM (inactive)
Ki [16]: > 6.31 µM (inactive)
Ki [17]: > 6.31 µM (inactive)
Ki [18]: > 3.98 µM (inactive)
Ki [19]: > 7.94 µM (inactive)
Ki [20]: 0.398 µM (active)
Ki [21]: > 7.94 µM (inactive)
Ki [22]: > 5.01 µM (inactive)
Ki [23]: > 7.94 µM (inactive)
Ki [24]: 7.94 µM (active)
Ki [25]: > 7.94 µM (inactive)
Ki [26]: > 5.01 µM (inactive)
Ki [27]: > 5.01 µM (inactive)
Ki [28]: > 3.98 µM (inactive)
Ki [29]: 2.51 µM (active)
Ki [30]: > 3.98 µM (inactive)
Ki [31]: > 7.94 µM (inactive)
Ki [32]: > 7.94 µM (inactive)
Ki [33]: > 6.31 µM (inactive)
Ki [34]: > 10 µM (inactive)
Ki [35]: > 10 µM (inactive)
Ki [36]: > 7.94 µM (inactive)
Ki [37]: > 3.98 µM (inactive)
Ki [38]: > 7.94 µM (inactive)
SMILES: NNc1cc(N2CCOCC2)nc(OCCc2ccccn2)n1
Ki [13]: > 10 µM (inactive)
